Test [1] has as its system Candida albicans KE-2. The experiment in a line: Inhibition test against pseudomycelium formation of Candida albicans. The class given is cell-based. The following applies: minimum effective concentration preventing typical pseudomycelium formation, Eagle-MEM medium with 20 % calf serum, 1 x 10^6 yeast cells/ml, 18 hours at 37 °C, two fold dilution series; for minimal effective concentration: Candida albicans, KE2, read-out: Inhibition for Pseudomyselium Formation of Candida albicans (MEC, μg/ml). As for the experimental part: Inhibition test against psendomycelium formation of Candida albicans Candida albicans KE-2 was inoculated to Eagle-MEM medium (Nissan 2 made by Nissui Seiyaku, Ltd.) supplemented with 20 % calf serum so that its final inoculum of yeast cell might be 1 x 10^6 yeast cells per milliliter. The test compounds are added thereon in two fold dilution series. After incubation for 18 hours at 37 °C, the fungal growth in each drug concentration is smeared and fixed on a slide glass, and its morphological feature on the presence or absence of the psendomycelium formation is examined by a microscope following Giemsa staining. Minimum effective concentration (MEC, µg/ml) is defined as the lowest concentration of the compound which prevented typical pseudo- mycelium formation.

Test [2] concerns Candida albicans KE-2. The experiment in a line: Therapeutic effect against experimental candidiasis in mice. The test is classed as in vivo, Jcl-ICR female mice. Conditions: mouse survival ratio on the 5th day after infection, 50 mg/kg orally three times (0, 4 and 24 hours after infection), i.v. infection with 2 x 10^6 cells, eight mice per group; for responders at 50 mg/kg: Candida albicans, KE2, po, 120 h; for Therapeutic Effect (%): 50 mg/kg. As for the experimental part:
Therapeutic effect against experimental candidiasis in mice After Candida albicans KE-2 is incubated on Sabouraud's glucose agar at 28 °C for 48 hr., it is suspended in Sabouraud's glucose broth and the cells (2 ^x 10^6) are injected to a tail vein of Jcl-ICR female mice (4 weeks age; weight : 18 - 20 g). A suspension of the test compound in 2 % gum arabic is orally administered three times, immediately after infection of the yeast ( 0 hour), after 4 hours and after 24 hours, as a dosage of 50 mg/kg. Non-treated group is used as control. Eight mice per group are used in the control group and the treated group. All the mice in the control group died within 48 hours after infection. Therapeutic effect of the test compound is judged by mouse survival ratio on the 5th day after infection.

Consider `CCOC(n1cncn1)C(O)(Cn1cncn1)c1ccc(F)cc1` (single isomer, unassigned) [Compound 33], for which the minimal effective concentration in the test on Candida albicans KE-2 [1] came to 1.25 µg/mL.
For the molecule `COC(n1cccn1)C(O)(Cn1ccnc1)c1ccc(Cl)cc1` (single isomer, unassigned) [Compound 35], the minimal effective concentration with Candida albicans KE-2 [1] is 0.04 µg/mL. Moreover, the responders at 50 mg/kg with Candida albicans KE-2 [2] came out at 25%.
For `COC(n1cncn1)C(O)(Cn1cncn1)c1ccc(F)cc1` (single isomer, unassigned) [Compound 24], in that order: 1.25 µg/mL and 87.5%.
Regarding `COC(n1cncn1)C(O)(Cn1ccnc1)c1ccc(F)cc1F` (single isomer, unassigned) [Compound 40], the responders at 50 mg/kg with Candida albicans KE-2 [2] turned out to be 37.5%.
With `COC(n1cncn1)C(O)(Cn1cncn1)c1ccc(F)cc1F` (single isomer, unassigned) [Compound 47, 2-(2,4-Difluorophenyl)-1-methoxy-1,3-bis(1H-1,2,4-tri-azol-1-yl)-2-propanol], the “Inhibition for Pseudomyselium Formation of Candida albicans (MEC, μg/ml)” value (“Inhibition for Pseudomyselium Formation” for short) in the test on Candida albicans KE-2 [1] worked out at 0.31 µg/mL.
With `COC(n1cncn1)C(O)(Cn1cncn1)c1ccc(Cl)cc1Cl` (single isomer, unassigned) [Compound 25], in the test on Candida albicans KE-2 [1], the minimal effective concentration amounted to 0.31 µg/mL. Besides, in the test on Candida albicans KE-2 [2], the responders at 50 mg/kg turned out to be 100%.
Take `COC(n1cncn1)C(O)(Cn1cncn1)c1ccccc1F` (single isomer, unassigned) [Compound 51]: the minimal effective concentration with Candida albicans KE-2 [1] amounted to 0.63 µg/mL.
Take `COC(n1cccn1)C(O)(Cn1cncn1)c1ccc(Cl)cc1` (single isomer, unassigned) [Compound 37]: the “Inhibition for Pseudomyselium Formation” value with Candida albicans KE-2 [1] turned out to be 0.63 µg/mL. For the same molecule, the responders at 50 mg/kg in the test with Candida albicans KE-2 [2] amounted to 62.5%.
In the case of `CCOC(n1cncn1)C(O)(Cn1cncn1)c1ccc(Cl)cc1Cl` (centres unmarked) [Compound 54], the responders at 50 mg/kg in the test on Candida albicans KE-2 [2] was 87.5%.
Turning to `COC(n1cccn1)C(O)(Cn1cncn1)c1ccc(F)cc1` (single isomer, unassigned) [Compound 27], in the test with Candida albicans KE-2 [2], the responders at 50 mg/kg was 25%.
As for `OC(Cn1cncn1)(c1ccc(F)cc1)C(OCC(F)(F)F)n1cncn1` (single isomer, unassigned) [Compound 32], the responders at 50 mg/kg with Candida albicans KE-2 [2] came out at 50%.
As for `COC(n1ccnc1C)C(O)(Cn1cncn1)c1ccc(Cl)cc1` (single isomer, unassigned) [Compound 45], the responders at 50 mg/kg with Candida albicans KE-2 [2] amounted to 37.5%.
For the molecule `COC(n1cccn1)C(O)(Cn1ccnc1)c1ccc(F)cc1` (single isomer, unassigned) [Compound 28], the “Inhibition for Pseudomyselium Formation” value with Candida albicans KE-2 [1] worked out at 0.08 µg/mL. The “Therapeutic Effect (%)” value in the test with Candida albicans KE-2 [2] is 62.5%.
For `COC(n1cccn1)C(O)(Cn1ccnc1)c1ccc(Cl)cc1` (single isomer, unassigned) [Compound 36], in that order: 0.08 µg/mL and 37.5%.
`COC(n1cccn1)C(O)(Cn1cncn1)c1ccc(Cl)cc1` (single isomer, unassigned) [Compound 34]: the minimal effective concentration in the test on Candida albicans KE-2 [1] amounted to 0.63 µg/mL.
For `COC(n1cccn1)C(O)(Cn1ccnc1)c1ccc(F)cc1` (single isomer, unassigned) [Compound 31], in the test with Candida albicans KE-2 [1], the “Inhibition for Pseudomyselium Formation” value stood at 1.25 µg/mL. The “Therapeutic Effect (%)” value with Candida albicans KE-2 [2] came to 37.5%.
For the molecule `COC(n1cccn1)C(O)(Cn1ccnc1)c1ccc(F)cc1F` (single isomer, unassigned) [Compound 30], in the test with Candida albicans KE-2 [1], the “Inhibition for Pseudomyselium Formation” value was 0.31 µg/mL. For the same molecule, the “Therapeutic Effect (%)” value in the test on Candida albicans KE-2 [2] was determined as 50.0%.
For the molecule `COC(n1cncn1)C(O)(Cn1cncn1)c1ccc(Cl)cc1` (single isomer, unassigned) [Compound 26], in the test with Candida albicans KE-2 [2], the responders at 50 mg/kg was 100%.
In the case of `COC(n1cccn1)C(O)(Cn1cccn1)c1ccc(Cl)cc1` (single isomer, unassigned) [Compound 38], the minimal effective concentration in the test on Candida albicans KE-2 [1] was 0.31 µg/mL. Further, the responders at 50 mg/kg in the test with Candida albicans KE-2 [2] stood at 25%.
For the molecule `COC(n1ccnc1)C(O)(Cn1cncn1)c1ccc(Cl)cc1` (single isomer, unassigned) [Compound 23], in the test on Candida albicans KE-2 [1], the minimal effective concentration is 0.63 µg/mL.
Regarding `COC(n1cncn1)C(O)(Cn1cncn1)c1ccc(F)cc1F` (single isomer, unassigned) [Compound 21, 2-(2,4-Difluorophenyl)-1-methoxy-1,3-bis(1H-1,2,4-tri-azol-1-yl)-2-propanol], the “Inhibition for Pseudomyselium Formation” value in the test on Candida albicans KE-2 [1] is 0.63 µg/mL. The responders at 50 mg/kg in the test with Candida albicans KE-2 [2] is 87.5%.
As for `COC(n1cnc(C)c1)C(O)(Cn1cncn1)c1ccc(Cl)cc1` (single isomer, unassigned) [Compound 46], the minimal effective concentration in the test on Candida albicans KE-2 [1] was found to be 0.08 µg/mL. In addition, the responders at 50 mg/kg in the test with Candida albicans KE-2 [2] was 12.5%.
For the molecule `COC(n1cncn1)C(O)(Cn1ccnc1)c1ccc(Cl)cc1Cl` (single isomer, unassigned) [Compound 44], the responders at 50 mg/kg in the test with Candida albicans KE-2 [2] came out at 12.5%.
On to `COC(n1cccn1)C(O)(Cn1ccnc1)c1ccc(F)cc1F` (single isomer, unassigned) [Compound 29], for which, in the test with Candida albicans KE-2 [1], the minimal effective concentration turned out to be 0.31 µg/mL. The “Therapeutic Effect (%)” value in the test with Candida albicans KE-2 [2] turned out to be 100.0%.
For the molecule `COC(n1cccn1)C(O)(Cn1cncn1)c1ccc(F)cc1F` (single isomer, unassigned) [Compound 49], the minimal effective concentration with Candida albicans KE-2 [1] came to 0.31 µg/mL. Besides, the responders at 50 mg/kg in the test on Candida albicans KE-2 [2] was found to be 75%.

Values taken from patent EP0234499A2, “Antifungal azolylpropanol derivatives” (SHIONOGI SEIYAKU KABUSHIKI KAISHA, priority 1986, dated 1987).
